Assay results: patent publication US20250099448A1, “HETEROCYCLIC COMPOUNDS” (Hoffmann-La Roche Inc., priority 2022, published 2025)

Biological target: T1, MAGL protein (Homo sapiens, UniProt Q99685)
T1 sequence (Q99685 1-303): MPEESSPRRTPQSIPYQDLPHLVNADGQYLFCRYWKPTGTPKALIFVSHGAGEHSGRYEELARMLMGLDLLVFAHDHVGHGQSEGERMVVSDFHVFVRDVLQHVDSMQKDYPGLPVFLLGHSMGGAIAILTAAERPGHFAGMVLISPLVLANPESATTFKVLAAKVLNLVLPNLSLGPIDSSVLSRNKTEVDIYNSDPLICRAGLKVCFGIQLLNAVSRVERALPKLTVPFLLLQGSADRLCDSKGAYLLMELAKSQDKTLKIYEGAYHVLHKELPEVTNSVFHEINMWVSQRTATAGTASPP
Assay: 2-AG assay: MAGL inhibitory activity by hydrolysis of 2-arachidonoylglycerol to arachidonic acid, followed by mass spectrometry
Format: biochemical
Details: 8 μM 2-arachidonoylglycerol, 15 min preincubation, 30 min reaction at RT, RapidFire MS readout
Summary of the method: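 MAGL was preincubated 15 min at RT with compound (12.5 to […], 3-fold steps) in 50 mM TRIS, 1 mM EDTA, 0.01% Tween-20, 2.5% DMSO. The reaction ran 30 min at RT with 8 μM 2-AG. Arachidonic acid was quantified by RapidFire SPE-MS/MS against a d8-arachidonic acid internal standard.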

## O=C(N1CC(c2ccc(NCC3(C(F)(F)F)CC3)cn2)C1)N1CC2(CC(c3nnc(C4CC4)[nH]3)C2)C1 [compound 256]
  IC50: 0.78 nM

## Cc1onc(C2CC2)c1CN1CC2(C1)CN(C(=O)N1CC3(CC(c4nc(C5CC5)n[nH]4)C3)C1)C2 [compound 686]
  IC50: 14.2 nM

## O=C(N1CC(c2cnc(N3CC[C@H](C(F)(F)F)C3)nc2)C1)N1CC2(CC(c3nc(C4CC4)n[nH]3)C2)C1 [compound 708]
  IC50: 2.63 nM

## Cc1nc(C(F)(F)F)c(CN2CC3(C2)CN(C(=O)N2CC4(CC(c5nc(C6CC6)n[nH]5)C4)C2)C3)s1 [compound 504]
  IC50: 1.04 nM

## O=C(N1CC2(CCN(S(=O)(=O)C34CC(C(F)(F)F)(C3)C4)CC2)C1)N1CC2(CC(c3nnc(C4CCC4)[nH]3)C2)C1 [compound 239]
  IC50: 842 nM

## O=C(N1CC2(CC(Cc3cnc4cc(C(F)(F)F)nn4c3)C2)C1)N1CC2(CC(c3nc(C4CC4)n[nH]3)C2)C1 [compound 996]
  IC50: 0.6 nM

## O=C(N1CC2(CC(Oc3cncc(C(F)(F)F)c3)C2)C1)N1CC2(CC(c3nc(C4CC4)n[nH]3)C2)C1 [compound 520]
  IC50: 2.23 nM

## O=C(N1CC2(CC(Oc3nc(C(F)(F)F)cs3)C2)C1)N1CC2(CC(c3nc(C4CC4)n[nH]3)C2)C1 [compound 423]
  IC50: 1.11 nM

## O=C(N1CC(c2ccc(-n3nc(C4CC4)cc3C(F)F)cc2)C1)N1CC2(CC(c3nnc(C4CC4)[nH]3)C2)C1 [compound 875]
  IC50: 0.33 nM

## O=C(N1CC(c2cnc(OCC3(C(F)(F)F)CC3)cn2)C1)N1CC2(CC(c3nc(C4CC4)n[nH]3)C2)C1 [compound 469]
  IC50: 1.12 nM

## O=C(N1CC(C23CC(c4ccc(OC(F)(F)F)cc4)(C2)C3)C1)N1CC2(CC(c3nc(C4(O)CC4)n[nH]3)C2)C1 [compound 551]
  IC50: 0.18 nM

## O=C(N1CC(c2ccc(S(=O)(=O)C(F)(F)F)cc2)C1)N1CC2(CC(c3nnc(C4CC4)[nH]3)C2)C1 [compound 243]
  IC50: 0.57 nM

## O=C(N1CC2(CC(Cn3cnc(C(F)(F)F)c3)C2)C1)N1CC2(CC(c3nnc(C4CC4)[nH]3)C2)C1 [compound 63]
  IC50: 3.59 nM

## O=C(N1CC2(CC(c3nnc(C4CC4)[nH]3)C2)C1)N1CC2(CN(Cc3ccc(S(=O)(=O)C(F)(F)F)cc3)C2)C1 [compound 86]
  IC50: 0.92 nM

## O=C(N1CC2(CC(c3nc(C4(O)CC4)n[nH]3)C2)C1)N1CC2(CC(S(=O)(=O)c3cccc(OC(F)(F)F)c3)C2)C1 [compound 484]
  IC50: 89.2 nM

## Cc1ncsc1CN1CCN(C(=O)N2CC3(CC(c4nc(C5CC5)n[nH]4)C3)C2)CC1 [Example 880, [6-(3-cyclopropyl-1H-1,2,4-triazol-5-yl)-2-azaspiro[3.3]heptan-2-yl]-[4-[(4-methylthiazol-5-yl)methyl]piperazino]methanone]
  IC50: 832 nM

## O=C(N1CC2(CC(c3cnc(C(F)(F)F)nc3)C2)C1)N1CC2(CC(c3nnc(C4CC4)[nH]3)C2)C1 [compound 630]
  IC50: 1.36 nM

## O=C(N1CC2(CC(c3nc(C4CC4)n[nH]3)C2)C1)N1CC2(CN(Cc3cnc(C(F)(F)F)s3)C2)C1 [compound 784]
  IC50: 5.18 nM

## COc1cc(C#N)ccc1COC1CCN(C(=O)N2CC3(CC(c4nnc(C5CC5)[nH]4)C3)C2)CC1 [Example 861]
  IC50: 59.6 nM

## N=S(=O)(c1ccc(CC2CC3(C2)CN(C(=O)N2CC4(CC(c5nc(C6(O)CC6)n[nH]5)C4)C2)C3)cc1)C(F)(F)F (stereo not drawn) [compound 558]
  IC50: 0.6 nM

## O=C(N1CC(c2cnc(C3(C(F)(F)F)CC3)nc2)C1)N1CC2(CC(c3nnc(C4CC4)[nH]3)C2)C1 [compound 235]
  IC50: 21.9 nM

## N=S(=O)(c1ccc(CC2CC3(C2)CN(C(=O)N2CC4(CC(c5nc(C6CC(F)(F)C6)n[nH]5)C4)C2)C3)cc1)C(F)(F)F (stereo not drawn) [compound 687]
  IC50: 54.1 nM

## CC(C)c1cc(C(C)C)n(-c2ccc(C3CN(C(=O)N4CC5(CC(c6nnc(C7CC7)[nH]6)C5)C4)C3)cc2)n1 [compound 276]
  IC50: 0.17 nM

## CS(=O)(=O)c1cc(C(F)(F)F)ccc1CC1CC2(C1)CN(C(=O)N1CC3(CC(c4ncn[nH]4)C3)C1)C2 [compound 633]
  IC50: 1310 nM

## Cn1nc(C(F)(F)F)cc1CN1CCC2(CC1)CN(C(=O)N1CC3(CC(c4nc(C5CC5)n[nH]4)C3)C1)C2 [compound 539]
  IC50: 9.25 nM

## O=C(N1CC2(CC(Cc3cc(C(F)F)c[nH]c3=O)C2)C1)N1CC2(CC(c3nc(C4CC4)n[nH]3)C2)C1 [compound 956]
  IC50: 1.48 nM

## O=C(N1CC2(CC(c3nc(C4CC4)n[nH]3)C2)C1)N1CC2(CN(Cc3ncc(C(F)(F)F)[nH]3)C2)C1 [compound 641]
  IC50: 67.4 nM

## O=C(N1CC2(CC(c3nc(C4CC4)n[nH]3)C2)C1)N1CC2(CN(Cc3ccc(C(F)(F)F)cc3F)C2)C1 [compound 584]
  IC50: 0.48 nM

## O=C(N1CC(c2ccc(C3(C(F)(F)F)CC3)cn2)C1)N1CC2(CC(c3nnc(C4CC4)[nH]3)C2)C1 [compound 236]
  IC50: 4.52 nM

## O=C(N1CC2(CC(Cc3cnc(C(F)(F)F)cn3)C2)C1)N1CC2(CC(c3nc(C(F)(F)F)n[nH]3)C2)C1 [compound 788]
  IC50: 22.5 nM

## O=C(N1CC2(CCC(Cc3ncc(F)cc3F)C2)C1)N1CC2(CC(c3nnc(C4CC4)[nH]3)C2)C1 (single isomer, unassigned) [compound 148]
  IC50: 0.17 nM

## O=C(N1CC(OCC2CC3C(C2)C3(F)F)C1)N1CC2(CC(c3nnc(C4CC4)[nH]3)C2)C1 (stereo not drawn) [compound 327]
  IC50: 24.9 nM

## O=C(N1CC(c2ccc(N3CC(C(F)(F)F)C3)nc2)C1)N1CC2(CC(c3nnc(C4CCC4)[nH]3)C2)C1 [compound 260]
  IC50: 19.7 nM

## CS(=N)(=O)c1ccc(CC2CC3(C2)CN(C(=O)N2CC4(CC(c5nc(C6CC6)n[nH]5)C4)C2)C3)cc1C(F)(F)F (stereo not drawn) [compound 952]
  IC50: 1.74 nM

## O=C(N1CC(c2ccc(N3CC4(CCCO4)C3)nc2)C1)N1CC2(CC(c3nnc(C4CC4)[nH]3)C2)C1 [compound 293]
  IC50: 11.1 nM

## CC1(NS(=O)(=O)N2CC3(CN(C(=O)N4CC5(CC(c6nnc(C7CC7)[nH]6)C5)C4)C3)C2)CC1 [compound 213]
  IC50: 45 nM

## O=C(N1CC2(CC(Cc3cncc(C(F)(F)F)c3)C2)C1)N1CC2(CC(c3nc(C4CC(F)(F)C4)n[nH]3)C2)C1 [compound 545]
  IC50: 46.9 nM

## O=C(N1CC2(CC(Cc3cncc(S(=O)(=O)C(F)(F)F)c3)C2)C1)N1CC2(CC(c3nc(C4CC4)n[nH]3)C2)C1 [compound 731]
  IC50: 0.18 nM

## O=C(N1CC2(CC(c3nc(C4CC(F)(F)C4)n[nH]3)C2)C1)N1CC2(CN(Cc3cc(C(F)(F)F)ns3)C2)C1 [compound 561]
  IC50: 1450 nM

## NC(=O)[C@H]1CC(F)(F)CCN1c1ccc(C2CN(C(=O)N3CC4(CC(c5nnc(C6CC6)[nH]5)C4)C3)C2)cc1 [Example 396, (2R)-1-[4-[1-[6-(5-cyclopropyl-4H-1,2,4-triazol-3-yl)-2-azaspiro[3.3]heptane-2-carbonyl]azetidin-3-yl]phenyl]-4,4-difluoro-piperidine-2-carboxamide]
  IC50: 4.77 nM

## CC(C)S(=O)(=O)c1ccc(C2CN(C(=O)N3CC4(CC(c5nnc(C6CC6)[nH]5)C4)C3)C2)c(Cl)c1 [compound 247]
  IC50: 3.7 nM

## COC(=O)C(C)(C)c1cccc(OC2CN(C(=O)N3CC4(CC(c5nnc(C6CC6)[nH]5)C4)C3)C2)c1 [compound 318]
  IC50: 7.3 nM

## O=C(N1CC2(CC(c3nnc(C4CC4)[nH]3)C2)C1)N1CC2(C1)CN(c1ncc(C(F)(F)F)cc1F)C2 [compound 678]
  IC50: 33.9 nM

## O=C(N1CC2(CC(OCC3(C(F)(F)F)CC3)C2)C1)N1CC2(CC(c3nnc(C4CC4)[nH]3)C2)C1 [compound 68]
  IC50: 5.36 nM

## O=C(N1CC(C23CC(C(F)(F)c4ccc(C(F)(F)F)cc4)(C2)C3)C1)N1CC2(CC(c3nc(C4(O)CC4)n[nH]3)C2)C1 [compound 974]
  IC50: 6.17 nM

## O=C(N1CC2(CC(Cc3ccc4cnc(C(F)(F)F)n4c3)C2)C1)N1CC2(CC(c3nc(C4CC4)n[nH]3)C2)C1 [compound 992]
  IC50: 0.16 nM

## Cc1nn(C)c(Cl)c1CN1CCN(C(=O)N2CC3(CC(c4nc(C5CC5)n[nH]4)C3)C2)CC1 [Example 881, [4-[(5-chloro-1,3-dimethyl-pyrazol-4-yl)methyl]piperazino]-[6-(3-cyclopropyl-1H-1,2,4-triazol-5-yl)-2-azaspiro[3.3]heptan-2-yl]methanone]
  IC50: 670 nM

## CS(=O)(=O)c1ccc(COC2CN(C(=O)N3CC4(CC(c5nnc(C6CC6)[nH]5)C4)C3)C2)cc1 [compound 333]
  IC50: 159 nM

## O=C(N1CC2(CC(Cc3nc(C(F)(F)F)ns3)C2)C1)N1CC2(CC(c3nnc(C4CC4)[nH]3)C2)C1 [compound 59]
  IC50: 0.53 nM

## O=C(N1CC(C23CC(Cc4ccc(C(F)(F)F)nc4)(C2)C3)C1)N1CC2(CC(c3nc(C4(O)CC4)n[nH]3)C2)C1 [compound 570]
  IC50: 35.8 nM

## CS(=O)(=O)c1ccc(C2CC3(C2)CN(C(=O)N2CC4(CC(c5nnc(C6CC6)[nH]5)C4)C2)C3)cc1 [compound 939]
  IC50: 3.41 nM

## O=C(N1CC(c2ccc(Oc3ccccc3Cl)nn2)C1)N1CC2(CC(c3nnc(C4CC4)[nH]3)C2)C1 [compound 378]
  IC50: 16.6 nM

## O=C(N1CC2(CCC(Cc3cnc(C(F)(F)F)cn3)C2)C1)N1CC2(CC(c3nnc(C4CC4)[nH]3)C2)C1 (single isomer, unassigned) [compound 151]
  IC50: 0.51 nM

## O=C(N1CC2(CC(c3nc(C4(O)CC4)n[nH]3)C2)C1)N1CC2(CC(C(F)(F)c3ccc(C(F)(F)F)nn3)C2)C1 [compound 448]
  IC50: 8.2 nM
